{"source": "patent US20150140123A1", "about": "“Protein expression analyses for identifying genotoxic compounds” (Merck Patent GmbH, priority 2012, published 2015)", "test_system": "HepG2 cells", "assay": "High content imaging cytotoxicity parameters: selected cell count per valid field (SCC) and CMFDA cytoplasm average intensity", "description": "HepG2 cells (Order No. HB-8065, Lot. 58483209, ATCC, Manassas, USA) were cultured in DMEM/F12 with L-Glutamine and 15 mM Hepes supplemented with 10% (v/v) FBS, 1% (v/v) penicillin (10 kU/ml)/streptomycin (10 mg/ml) solution, 0.1% (v/v) gentamicin (50 mg/ml), and 1 mM sodium pyruvate at 37° C. and 5% CO2 in culture flasks. Depending on the experiment, an appropriate number of cells were seeded onto plates after detaching of the cells using trypsin and cells were cultured at 37° C. and 5% CO2 for 24 h prior to treatment. All experiments were performed three times with cells of passages 4-20.\nCells were seeded onto black Poly-D-Lysin coated 96-well-plates (BD Biocoat, Franklin Lakes, USA) (0.02×10^6 cells/well) and left 24 h for adherence and then treated with test compounds at a maximum concentration of 1 mM which is recommended by the ICH S2(R1) guideline (EMA, 2011). For each compound, nine concentrations were tested with 2-fold serial dilutions. DMSO 1% (v/v) served as vehicle control for the experiments. The treatment procedure was different for direct-genotoxic and pro-genotoxic compounds. The treatment for direct genotoxic compounds was ongoing and was repeated daily over 48 h. Pro-genotoxic compounds were incubated for 6 h together with metabolic activation system (to limit the cytotoxic effect of the S9-mixture). After this period, cells were washed with cell media followed by 18-repeated daily over 48 h. The metabolic activation system used consisted of the following components and concentrations: 8 mM MgCl2, 32.8 mM KCl, 12 mM NADPH, 124 mM phosphate buffer and 2500 pmol/ml cytochrome P450 (CYP) content in the pre-mixture corresponding to 2.4 mM MgCl2, 9.8 mM KCl, 3.6 mM NADPH, 37.2 mM phosphate buffer, and 750 pmol/ml CYP as final concentrations after dilution 1:3.33 with cell culture media.\nAfter treatment, cells were rinsed with PBS (Gibco Invitrogen, Karlsruhe, Germany), and then stained with 10 μM CellTracker Green 5-Chloromethylfluorescein Diacetate (CMFDA) (Invitrogen, Karlsruhe, Germany) in cell culture media for 30 min. CMFDA is per se non-fluorescent and is hydrolyzed by esterase in viable cells to a fluorescent-dye. The reaction with thiol groups leads to a cell-impermeable fluorescent-dye-adduct. The esterase activity can be used as an indicator for viability of cells (Papadopoulos et al., 1994, J Immunol Methods 177, 101-11). Afterwards, cells were washed with PBS and fixed with 3.7% Formaldehyde (Sigma-Aldrich, Taufkirchen, Germany) in PBS for 20 min. After that, cells were washed with PBS and blocked and permeabilized with 2% donkey serum (Millipore, Schwalbach, Germany) and 0.25% Triton X-100 (Sigma-Aldrich, Taufkirchen, Germany) in PBS for 30 min. Primary antibodies were diluted in Blocking/Permeabilization solution to final concentrations of 4 μg/ml anti-p-Chk1 (Ser345) goat polyclonal antibody IgG (santa cruz, Santa Cruz, USA), 4 μg/ml anti-p-ATM (Ser1981) mouse monoclonal antibody IgG1K (Millipore, Schwalbach, Germany) and added to the cells. After incubation for 16-18 h, cells were washed with 0.05% Tween 20 (Calbiochem, Darmstadt, Germany) in PBS, and the secondary antibody/16 μM Hoechst staining solution Blocking/Permeabilization solution was added. Secondary antibodies were diluted 1:400 (Alexa Fluor 555 donkey anti-goat, Alexa Fluor 647 donkey anti-mouse, Invitrogen, Karlsruhe, Germany). After an incubation of 1 h, followed by two additional washing steps with 0.05% Tween 20, cells were washed with PBS and finally PBS was added and cells were measured.\nImage acquisition was performed on the ArrayScan VTI HCS Reader (Cellomics, Pittsburgh, USA) using a 20× objective. To detect enough cells, 50 images starting at the middle of each well were gathered.\n• Channel 1: selected cell count per valid field • Channel 2: CMFDA cytoplasm average intensity • Channel 3: p-Chk1 (Ser345) nucleus average intensity • Channel 4: p-ATM (Ser1981) nucleus average intensity", "key": {"[1]": {"conditions": "HepG2 cells, 48 h, CMFDA cytoplasm average intensity, with rat liver S9 (+S9)"}, "[2]": {"conditions": "HepG2 cells, 48 h, CMFDA cytoplasm average intensity, without metabolic activation (−S9)"}, "[3]": {"conditions": "HepG2 cells, 48 h, selected cell count per valid field, with rat liver S9 (+S9)"}, "[4]": {"conditions": "HepG2 cells, 48 h, selected cell count per valid field, without metabolic activation (−S9)"}}, "note": "Where two headings read alike, the source gives them in different places."}
{"compound": "Cc1noc(NS(=O)(=O)c2ccc(N)cc2)c1C", "note": "[Sulfisoxazole]", "values": [{"measurement": "CMFDA +S9 highest conc. <50% cytotox. over control", "setting": "human, 48 h", "value": 1000, "unit": "µM"}, {"measurement": "CMFDA −S9 highest conc. <50% cytotox. over control", "setting": "human, 48 h", "value": 1000, "unit": "µM"}, {"measurement": "SCC +S9 highest conc. <50% cytotox. over control", "setting": "human, 48 h", "value": 1000, "unit": "µM"}, {"measurement": "SCC −S9 highest conc. <50% cytotox. over control", "setting": "human, 48 h", "value": 1000, "unit": "µM"}]}
{"compound": "Oc1cccc(O)c1", "note": "[1,3-Dihydroxybenzene (resorcinol), 1,3-Dihydroxybenzene]", "values": [{"measurement": "CMFDA +S9 highest conc. <50% cytotox. over control", "setting": "human, 48 h", "value": 500, "unit": "µM"}, {"measurement": "CMFDA −S9 highest conc. <50% cytotox. over control", "setting": "human, 48 h", "value": 1000, "unit": "µM"}, {"measurement": "SCC +S9 highest conc. <50% cytotox. over control", "setting": "human, 48 h", "value": 1000, "unit": "µM"}, {"measurement": "SCC −S9 highest conc. <50% cytotox. over control", "setting": "human, 48 h", "value": 1000, "unit": "µM"}]}
{"compound": "Nc1nc(N)nc(N)n1", "note": "[Melamine]", "values": [{"measurement": "CMFDA +S9 highest conc. <50% cytotox. over control", "setting": "[1]", "value": 1000, "unit": "µM"}, {"measurement": "CMFDA −S9 highest conc. <50% cytotox. over control", "setting": "[2]", "value": 1000, "unit": "µM"}, {"measurement": "SCC +S9 highest conc. <50% cytotox. over control", "setting": "[3]", "value": 1000, "unit": "µM"}, {"measurement": "SCC −S9 highest conc. <50% cytotox. over control", "setting": "[4]", "value": 1000, "unit": "µM"}]}
{"compound": "COC(N)=O", "note": "[Methyl carbamate]", "values": [{"measurement": "CMFDA +S9 highest conc. <50% cytotox. over control", "setting": "[1]", "value": 1000, "unit": "µM"}, {"measurement": "CMFDA −S9 highest conc. <50% cytotox. over control", "setting": "[2]", "value": 1000, "unit": "µM"}, {"measurement": "SCC +S9 highest conc. <50% cytotox. over control", "setting": "[3]", "value": 1000, "unit": "µM"}, {"measurement": "SCC −S9 highest conc. <50% cytotox. over control", "setting": "[4]", "value": 1000, "unit": "µM"}]}
{"compound": "O=P1(N(CCCl)CCCl)NCCCO1", "note": "(centres unmarked) [Cyclophosphamide]", "values": [{"measurement": "CMFDA +S9 highest conc. <50% cytotox. over control", "setting": "human", "value": 62.5, "unit": "µM"}, {"measurement": "CMFDA −S9 highest conc. <50% cytotox. over control", "setting": "human", "value": 1000, "unit": "µM"}, {"measurement": "SCC +S9 highest conc. <50% cytotox. over control", "setting": "human", "value": 1000, "unit": "µM"}, {"measurement": "SCC −S9 highest conc. <50% cytotox. over control", "setting": "human", "value": 1000, "unit": "µM"}]}
{"compound": "O=C1OC(=O)c2ccccc21", "note": "[Phthalic anhydride]", "values": [{"measurement": "CMFDA +S9 highest conc. <50% cytotox. over control", "setting": "[1]", "value": 1000, "unit": "µM"}, {"measurement": "CMFDA −S9 highest conc. <50% cytotox. over control", "setting": "[2]", "value": 1000, "unit": "µM"}, {"measurement": "SCC +S9 highest conc. <50% cytotox. over control", "setting": "[3]", "value": 1000, "unit": "µM"}, {"measurement": "SCC −S9 highest conc. <50% cytotox. over control", "setting": "[4]", "value": 1000, "unit": "µM"}]}
{"compound": "Nc1nc[nH]n1", "note": "[Amitrole]", "values": [{"measurement": "CMFDA +S9 highest conc. <50% cytotox. over control", "setting": "human, 48 h", "value": 1000, "unit": "µM"}, {"measurement": "CMFDA −S9 highest conc. <50% cytotox. over control", "setting": "human, 48 h", "value": 1000, "unit": "µM"}, {"measurement": "SCC +S9 highest conc. <50% cytotox. over control", "setting": "human, 48 h", "value": 1000, "unit": "µM"}, {"measurement": "SCC −S9 highest conc. <50% cytotox. over control", "setting": "human, 48 h", "value": 1000, "unit": "µM"}]}
{"compound": "O=[As]O", "note": "[Sodium arsenite]", "values": [{"measurement": "CMFDA +S9 highest conc. <50% cytotox. over control", "setting": "[1]", "value": 125, "unit": "µM"}, {"measurement": "CMFDA −S9 highest conc. <50% cytotox. over control", "setting": "[2]", "value": 62.5, "unit": "µM"}, {"measurement": "SCC +S9 highest conc. <50% cytotox. over control", "setting": "[3]", "value": 125, "unit": "µM"}, {"measurement": "SCC −S9 highest conc. <50% cytotox. over control", "setting": "[4]", "value": 7.81, "unit": "µM"}]}
{"compound": "NC(N)=O", "note": "[Urea]", "values": [{"measurement": "CMFDA +S9 highest conc. <50% cytotox. over control", "setting": "[1]", "value": 1000, "unit": "µM"}, {"measurement": "CMFDA −S9 highest conc. <50% cytotox. over control", "setting": "[2]", "value": 1000, "unit": "µM"}, {"measurement": "SCC +S9 highest conc. <50% cytotox. over control", "setting": "[3]", "value": 1000, "unit": "µM"}, {"measurement": "SCC −S9 highest conc. <50% cytotox. over control", "setting": "[4]", "value": 1000, "unit": "µM"}]}
{"compound": "CN(C)C(=O)Nc1cccc(C(F)(F)F)c1", "note": "[Fluometron]", "values": [{"measurement": "CMFDA +S9 highest conc. <50% cytotox. over control", "setting": "human, 48 h", "value": 1000, "unit": "µM"}, {"measurement": "CMFDA −S9 highest conc. <50% cytotox. over control", "setting": "human, 48 h", "value": 1000, "unit": "µM"}, {"measurement": "SCC +S9 highest conc. <50% cytotox. over control", "setting": "human, 48 h", "value": 1000, "unit": "µM"}, {"measurement": "SCC −S9 highest conc. <50% cytotox. over control", "setting": "human, 48 h", "value": 500, "unit": "µM"}]}
{"compound": "Aflatoxin B1", "values": [{"measurement": "CMFDA +S9 highest conc. <50% cytotox. over control", "value": 500, "unit": "µM"}, {"measurement": "CMFDA −S9 highest conc. <50% cytotox. over control", "value": 500, "unit": "µM"}, {"measurement": "SCC +S9 highest conc. <50% cytotox. over control", "value": 500, "unit": "µM"}, {"measurement": "SCC −S9 highest conc. <50% cytotox. over control", "value": 31.25, "unit": "µM"}]}
{"compound": "CC1(C)S[C@@H]2[C@H](NC(=O)[C@H](N)c3ccccc3)C(=O)N2[C@H]1C(=O)O", "note": "[Ampicillin trihydrate]", "values": [{"measurement": "CMFDA +S9 highest conc. <50% cytotox. over control", "setting": "human, 48 h", "value": 1000, "unit": "µM"}, {"measurement": "CMFDA −S9 highest conc. <50% cytotox. over control", "setting": "human, 48 h", "value": 1000, "unit": "µM"}, {"measurement": "SCC +S9 highest conc. <50% cytotox. over control", "setting": "human, 48 h", "value": 1000, "unit": "µM"}, {"measurement": "SCC −S9 highest conc. <50% cytotox. over control", "setting": "human, 48 h", "value": 1000, "unit": "µM"}]}
{"compound": "ClC(Cl)(Cl)C(Cl)(Cl)Cl", "note": "[Hexachloroethane]", "values": [{"measurement": "CMFDA +S9 highest conc. <50% cytotox. over control", "setting": "[1]", "value": 1000, "unit": "µM"}, {"measurement": "CMFDA −S9 highest conc. <50% cytotox. over control", "setting": "[2]", "value": 1000, "unit": "µM"}, {"measurement": "SCC +S9 highest conc. <50% cytotox. over control", "setting": "[3]", "value": 1000, "unit": "µM"}, {"measurement": "SCC −S9 highest conc. <50% cytotox. over control", "setting": "[4]", "value": 1000, "unit": "µM"}]}
{"compound": "CC(C)C=O", "note": "[Isobutyraldehyde]", "values": [{"measurement": "CMFDA +S9 highest conc. <50% cytotox. over control", "setting": "human, 48 h", "value": 1000, "unit": "µM"}, {"measurement": "CMFDA −S9 highest conc. <50% cytotox. over control", "setting": "human, 48 h", "value": 1000, "unit": "µM"}, {"measurement": "SCC +S9 highest conc. <50% cytotox. over control", "setting": "human, 48 h", "value": 1000, "unit": "µM"}, {"measurement": "SCC −S9 highest conc. <50% cytotox. over control", "setting": "human, 48 h", "value": 1000, "unit": "µM"}]}
